# Results as given in patent US5594004A, “Compound with platelet aggregation inhibitor activity” (Meiji Seika Kabushiki Kaisha, priority 1993, dated 1997).
# Structures can show the parent of a compound that is named as a salt.
# Assays:
# [1] = biological target: T1, human platelet GPIIb/IIIa (Homo sapiens, UniProt P05106+P08514); test: Pharmacological test 2: inhibition of fibrinogen bonding to platelet GPIIb/IIIa (solid phase assay, biotinylated fibrinogen); type: binding; settings: for inhibition at 10 µM: inhibition rate at 10^-5 M; for IC50: fibrinogen bonding to GPIIb/IIIa
# T1 construct: platelets collected from healthy adults; from tissue; host or cells: platelets from healthy adults (solubilized with octylglucoside, purified on GRGDSPK-Sepharose)
# Description: Inhibiting effect of the compound according to the present invention on the binding of platelet GPIIb/IIIa and fibrinogen was examined with a solid phase human platelet GPIIb/IIIa bonding assay using biotinylated fibrinogen as a ligand. Human platelet GPIIb/IIIa was purified according to the method described by Pytela, R. et al. (Science, 231, 1559-1561 (1986)). […] The same amount of TBS containing 50 mM octylglucoside and 2 mM PMSF was added to the pellet obtained in order to solubilize the membrane protein at 4° C. for 20 minutes. […] The solubilized protein solution was adsorbed on a GRGDSPK-Sepharose column which had been equilibrated with TBS (Buffer A) containing 50 mM Octylglucoside, 1 mM CaCl2 and MgCl2. After the column was washed with Buffer A, the adsorbed GPIIb/IIIa was eluted with Buffer A containing 2 mM GRGDSP peptide. GRGDSPK-Sepharose was prepared by coupling GRGDSPK peptide and CNBr-activated Sepharose 4B (Pharmacia) according to the instruction of the manufacturer. Then, solid phase human platelet GPIIb/IIIa bonding assay was carried out according to the method of Mori et al. […] Purified human platelet GPIIb/IIIa was adjusted in an amount of 2 μg/ml and adsorbed in an amount of 50 μl on a 96 well-microtiter plate at 4° C. overnight. After washing with TBS containing 1 mM CaCl2 and 1 mM MgCl2, 100 μl of 1% bovine serum albumin was added, blocking was conducted at 4° C. overnight. […] After washing with TBS-Tween 20, 50 μl of peroxidase labelled avidin which had been diluted with TBS to 4,000 times was added. The reaction was continued for 20 minutes. […] A 50 μl portion of a 0.1M citrate buffer containing 0.05% NaN3 was added to stop the reaction, and absorbance at 415 nm was measured. The rate of Bonding inhibition was calculated from the following formula: [formula]
# [2] = tested on: human PRP (platelet rich plasma); test: Pharmacological test 1: inhibition of ADP-induced platelet aggregation in human PRP; type: cell-based; settings: Platelet, ADP 5 μM inducer; for inhibition at 1 µM: inhibition rate at 10^-6 M; for IC50: Homo sapiens, platelet aggregation
# Description: Pharmacological test 1 Inhibition of platelet aggregation
# The effect of the compound according to the present invention on inhibiting the platelet aggregation was examined with human PRP (platelet rich plasma).
# Nine volumes of a blood sample was taken out of the vein of a normal human with a syringe in which one volume of a 3.8% sodium citrate solution was charged. The blood sample was centrifuged at 170×g at room temperature for 10 minutes. The supernatant thus obtained was isolated as PRP. The residual blood sample that PRP had been taken out was centrifuged at 2,700×g for 15 minutes. The supernatant was then taken as platelet poor plasma (PPP).
# Platelet aggregation test was conducted with an aggligometer (PAM-8C; manufactured by MEBANICKS Co., Ltd.). Compounds to be tested were dissolved in a 50% DMSO saline, a 50% methanol saline or physiological saline. The compound and PRP were preincubated for 2 minutes. The ADP (CHRONO-PAR REAGENTS 384 ADP, CHRONO-LOG Corp.) was used as an inducer in the form of a dilution with saline so that the final concentration is 5 μM.
# Anti-platelet aggregation activity was obtained as an inhibition rate to platelet aggregation effect of ADP in the absence of a compound to be tested as follows: [formula] Physiological test 2 Inhibition of fibrinogen bonding to platelet GPIIb/IIIa
# T1 sequence (P08514 32-887 limits assumed): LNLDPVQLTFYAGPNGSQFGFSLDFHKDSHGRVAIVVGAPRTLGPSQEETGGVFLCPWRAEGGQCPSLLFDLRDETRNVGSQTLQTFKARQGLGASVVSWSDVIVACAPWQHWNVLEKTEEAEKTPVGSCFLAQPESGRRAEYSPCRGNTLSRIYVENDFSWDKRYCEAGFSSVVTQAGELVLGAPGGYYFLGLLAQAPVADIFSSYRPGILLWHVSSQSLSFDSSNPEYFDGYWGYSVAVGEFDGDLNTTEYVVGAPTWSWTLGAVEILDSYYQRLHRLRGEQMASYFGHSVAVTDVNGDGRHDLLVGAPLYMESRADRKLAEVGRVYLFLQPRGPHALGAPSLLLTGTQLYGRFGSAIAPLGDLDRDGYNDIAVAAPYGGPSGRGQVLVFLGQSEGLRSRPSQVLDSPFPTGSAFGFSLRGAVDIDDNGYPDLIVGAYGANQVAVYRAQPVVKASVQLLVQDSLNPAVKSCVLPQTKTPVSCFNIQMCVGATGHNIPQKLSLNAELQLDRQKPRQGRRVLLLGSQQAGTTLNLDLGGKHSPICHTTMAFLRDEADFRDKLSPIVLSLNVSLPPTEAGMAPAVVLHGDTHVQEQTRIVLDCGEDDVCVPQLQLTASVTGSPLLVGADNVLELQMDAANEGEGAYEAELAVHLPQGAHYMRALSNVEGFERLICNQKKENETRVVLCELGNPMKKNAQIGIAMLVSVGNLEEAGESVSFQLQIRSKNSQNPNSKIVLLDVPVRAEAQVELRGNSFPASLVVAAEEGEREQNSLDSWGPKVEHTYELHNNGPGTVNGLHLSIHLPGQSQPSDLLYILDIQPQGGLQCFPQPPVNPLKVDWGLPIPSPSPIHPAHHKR
# T1 sequence (P08514 891-1039 limits assumed): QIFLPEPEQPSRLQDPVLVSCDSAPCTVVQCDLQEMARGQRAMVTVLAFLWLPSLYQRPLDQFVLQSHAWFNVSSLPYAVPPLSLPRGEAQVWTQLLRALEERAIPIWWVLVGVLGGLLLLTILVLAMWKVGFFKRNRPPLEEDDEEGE
# T1 sequence (P05106 27-788): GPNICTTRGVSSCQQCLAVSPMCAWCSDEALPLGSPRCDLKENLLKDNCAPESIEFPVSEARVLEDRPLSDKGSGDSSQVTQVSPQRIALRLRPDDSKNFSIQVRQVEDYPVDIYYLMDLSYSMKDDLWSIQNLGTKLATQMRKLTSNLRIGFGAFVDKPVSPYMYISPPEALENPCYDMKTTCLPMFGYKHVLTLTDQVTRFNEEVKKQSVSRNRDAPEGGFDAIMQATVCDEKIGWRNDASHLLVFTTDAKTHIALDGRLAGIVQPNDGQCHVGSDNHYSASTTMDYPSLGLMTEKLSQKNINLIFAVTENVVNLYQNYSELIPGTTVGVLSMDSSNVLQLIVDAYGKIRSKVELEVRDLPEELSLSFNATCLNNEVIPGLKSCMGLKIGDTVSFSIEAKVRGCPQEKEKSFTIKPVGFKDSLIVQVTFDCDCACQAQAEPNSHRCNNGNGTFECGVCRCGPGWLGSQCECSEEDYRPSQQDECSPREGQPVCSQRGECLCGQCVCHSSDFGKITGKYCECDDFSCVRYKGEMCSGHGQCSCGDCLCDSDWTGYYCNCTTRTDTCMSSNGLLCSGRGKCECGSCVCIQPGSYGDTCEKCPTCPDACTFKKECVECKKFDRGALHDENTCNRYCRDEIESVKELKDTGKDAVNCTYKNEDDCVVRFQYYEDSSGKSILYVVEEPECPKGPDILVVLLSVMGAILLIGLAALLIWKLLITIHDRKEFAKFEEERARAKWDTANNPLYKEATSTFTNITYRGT
SMILES,inhibition at 10 µM [1],inhibition at 1 µM [2],inhibition at 0.1 µM ([1]; inhibition rate at 10^-7 M),IC50 [2],IC50 [1]
"NC[C@H]1CC[C@H](C(=O)NCC(=O)c2ccc(OCC(=O)O)c(OCC(=O)O)c2)CC1 [Example 1, [[4-[[[trans-4-(aminomethyl)cyclohexyl]carbonylamino]acetyl]-o-phenylene]dioxy]diacetic acid trifluoroacetate]",51%,68%,–,–,–
"O=C(O)COc1ccc(C(=O)CNC(=O)CCC2CCNCC2)cc1OCC(=O)O [Example 10, [[4-[[N-[3-(piperidin-4-yl)propionyl]amino]acetyl]-o-phenylene]dioxy]diacetic acid trifluoroaceetate]",–,85%,82%,350 nM,–
"O=C(O)COc1ccc(C(=O)CNC(=O)c2cc3c(s2)CCNC3)cc1OCC(=O)O [Example 18, [[4-[[[(4,5,6,7-tetrahydrothieno [3,2-c]pyridin-2-yl]carbonyl]amino]acetyl]-o-phenylene]dioxy]diacetic acid trifluoroacetate]",–,–,–,140 nM,1.7 µM
"O=C(O)COc1ccc(C(O)CNC(=O)c2cc3c(s2)CCNC3)nc1 (stereo not shown) [Example 21, 2-[1-hydroxy-2-[(4,5,6,7-tetrahydrothieno[3,2-c]pyridin-2-yl)carbonylamino]ethyl]pyridin-5-yloxyacetic acid trifluoroacetate]",–,–,–,500 nM,10 µM
"Cc1c(C(=O)NCC(=O)c2ccc(OCC(=O)O)c(OCC(=O)O)c2)sc2c1CNCC2 [Example 27, [[4-[[[(3-methyl-4,5,6,7-tetrahydrothieno[3.2-c]pyridin-2-yl)carbonyl]amino]acetyl]-o-phenylene]dioxy]diacetic acid trifluoroacetate]",–,–,–,2500 nM,9.5 µM
"NC[C@H]1CC[C@H](C(=O)NCCc2ccc(OCC(=O)O)c(OCC(=O)O)c2)CC1 [Example 7, [[4-[[2-[trans-4-(aminomethyl)cyclohexyl]carbonylamino]ethyl]-o-phenylene]dioxy]diacetic acid trifluoroacetate]",27%,48%,–,–,–
"O=C(O)COc1ccc(C(=O)CNC(=O)c2cc3c(s2)CCNC3)cc1 [Example 22, 4-[[(4,5,6,7-tetrahydrothieno[3,2-c]pyridin-2-yl)carbonyl]aminoacetyl]phenoxyacetic acid trifluoroacetate]",–,–,–,1200 nM,> 10 µM
"CN(CC(=O)c1ccc(OCC(=O)O)c(OCC(=O)O)c1)C(=O)c1cc2c(s1)CCNC2 [Example 19, [[4-[[[(4,5,6,7-tetrahydrothieno[3,2-c]pyridin-2-yl)carbonyl]-N-methylamino]acetyl]-o-phenylene]dioxy]diacetic acid trifluoroacetate]",–,–,–,550 nM,3.6 µM
"NCC1CCC(c2ncc(-c3ccc(OCC(=O)O)c(OCC(=O)O)c3)o2)CC1 (stereo not shown) [Example 4, 2-(4-aminomethylcyclohexyl)-5-(3,4-dicarboxymethoxy)phenyloxazole]",73%,85%,–,–,–
